# Measured values taken from patent EP0385712B1, “A peptide for use in the manufacture of a composition for prevention or treatment of a condition susceptible to treatment with a platelet aggregation inhibition agent” (ASAHI KASEI KOGYO KABUSHIKI KAISHA, priority 1989, dated 1994).
# Positions of bridges follow the written chain, without caps; N, C: chain ends. Residues, ends and D or L forms follow the SMILES beside them.
# Tested on: rat, Wister strain
# Experiment: Acute toxicity in rat, intravenous
# Type: in vivo
# Conditions: body weight 80 - 90 g, 80 µg/kg intravenously in the tail, solution in 0.1 M aqueous sodium acetate containing 0.1 % bovine serum albumin
# Protocol: A solution of each of the following compounds in 0.1 M aqueous sodium acetate containing 0.1 % bovine serum albumin is administered into a rat, Wister strain, body weight 80 - 90 g, 80 µg/kg, intraveneously in the tail.
row,Compound,Acute toxicity (deaths)
1,desalanyl-deamino-c-CGRP,No deaths were observed
2,"CC(C)C[C@H](NC(=O)[C@H](CCCNC(=N)N)NC(=O)[C@H](Cc1c[nH]cn1)NC(=O)[C@@H](NC(=O)[C@@H](NC(=O)[C@@H]1CSSC[C@H](NC(=O)[C@H](C)N)C(=O)N[C@@H](CC(N)=O)C(=O)N[C@@H]([C@@H](C)O)C(=O)N[C@@H](C)C(=O)N[C@@H]([C@@H](C)O)C(=O)N1)C(C)C)[C@@H](C)O)C(=O)N[C@@H](C)C(=O)N[C@@H](CCC(=O)O)C(=O)N[C@@H](Cc1ccccc1)C(=O)N[C@@H](CC(C)C)C(=O)N[C@@H](CO)C(=O)N[C@@H](CCCNC(=N)N)C(=O)N[C@@H](CO)C(=O)NCC(=O)NCC(=O)N[C@H](C(=O)N[C@H](C(=O)N[C@@H](CCCCN)C(=O)N[C@@H](CC(N)=O)C(=O)N[C@@H](CC(N)=O)C(=O)N[C@@H](Cc1ccccc1)C(=O)N[C@H](C(=O)N1CCC[C@H]1C(=O)N[C@H](C(=O)N[C@@H](CC(N)=O)C(=O)N[C@H](C(=O)NCC(=O)N[C@@H](CO)C(=O)N[C@@H](CCCCN)C(=O)N[C@@H](C)C(=O)N[C@@H](Cc1ccccc1)C(N)=O)C(C)C)[C@@H](C)O)C(C)C)C(C)C)C(C)C [[Asn³, Glu¹⁴, Phe¹⁵] -h -α-CGRP] (H-ACNTATCVTHRLAEFLSRSGGVVKNNFVPTNVGSKAF-NH2; disulfide 2-7)",No deaths were observed
